In patent publication US10251394B2, “Molecules having pesticidal utility, and intermediates, compositions, and processes, related thereto” (Dow AgroSciences LLC, priority 2016, dated 2019):

How the values were obtained:
[1] = tested on: Beet Armyworm (Spodoptera exigua); test: Bioassay on Beet Armyworm (BAW), 128-well diet tray assay; format: in vivo; conditions: for pest or weed control at 50 µg/cm2: Beet Armyworm, Table ABC, read-out: BAW rating
Experimental: (§1) Example A: Bioassays on Beet Armyworm (Spodoptera Exigua, LAPHEG) (“BAW”), Corn Earworm (Helicoverpa Zea, HELIZE) (“CEW”), and Cabbage Looper (Trichoplusia Ni, TRIPNI) (“CL”)
(§2) Certain molecules disclosed in this document were tested against BAW, CEW, and CL using procedures described in the following examples. In the reporting of the results, the “BAW, CEW, & CL Rating Table” was used (See Table Section).
Bioassays on BAW were conducted using a 128-well diet tray assay. One to five second instar BAW larvae were placed in each well (3 mL) of the diet tray that had been previously filled with 1 mL of artificial diet to which 50 μg/cm^2 of the test molecule (dissolved in 50 μL of 90:10 acetone-water mixture) had been applied (to each of eight wells) and then allowed to dry. Trays were covered with a clear self-adhesive cover and held at 25° C., 14:10 light-dark for five to seven days. Percent mortality was recorded for the larvae in each well; activity in the eight wells was then averaged. The results are indicated in the table entitled “Table ABC: Biological Results” (See Table Section).
(§3) Bioassays on BAW and CL were conducted according to the procedures outlined in Example A: Bioassays on Beet Armyworm (“BAW”) and Cabbage Looper (“CL”) using the indicated concentrations.

[2] = tested on: Cabbage Looper (Trichoplusia ni); test: Bioassay on Cabbage Looper (CL), 128-well diet tray assay; format: in vivo; conditions: for pest or weed control at 50 µg/cm2: Cabbage Looper, Table ABC, read-out: CL rating
Experimental: as §1, §2
Bioassays on CL were conducted using a 128-well diet tray assay. One to five second instar CL larvae were placed in each well (3 mL) of the diet tray that had been previously filled with 1 mL of artificial diet to which 50 μg/cm^2 of the test molecule (dissolved in 50 μL of 90:10 acetone-water mixture) had been applied (to each of eight wells) and then allowed to dry. Trays were covered with a clear self-adhesive cover and held at 25° C., 14:10 light-dark for five to seven days. Percent mortality was recorded for the larvae in each well; activity in the eight wells was then averaged. The results are indicated in the table entitled “Table ABC: Biological Results” (See Table Section).
as §3

SMILES	mortality at 0.05 µg/cm2 ([1]; 168 h, 0.05 μg/cm^2 on artificial diet, second instar larvae, five to seven days, read-out: BAW Percent control (or mortality))	mortality at 0.5 µg/cm2 ([1]; 168 h, 0.5 μg/cm^2 on artificial diet, second instar larvae, five to seven days, read-out: BAW Percent control (or mortality))	pest or weed control at 50 µg/cm2 [1]	mortality at 0.05 µg/cm2 ([2]; 168 h, 0.05 μg/cm^2 on artificial diet, second instar larvae, five to seven days, read-out: CL Percent control (or mortality))	mortality at 0.5 µg/cm2 ([2]; 168 h, 0.5 μg/cm^2 on artificial diet, second instar larvae, five to seven days, read-out: CL Percent control (or mortality))	pest or weed control at 50 µg/cm2 [2]
Cc1cc(/C(F)=C/C(c2cc(Cl)c(Cl)c(Cl)c2)C(F)(F)F)ccc1C(=O)N[C@H](C)C(=O)NCC(F)(F)F (stereo partly drawn) [F7, 2-Methyl-N—((R)-1-oxo-1-((2,2,2-trifluoroethyl)amino)propan-2-yl)-4-((Z)-1,4,4,4-tetrafluoro-3-(3,4,5-trichlorophenyl)but-1-en-1-yl)benzamide]	100%	100%	50 to 100%	100%	100%	50 to 100%
CNC(=O)[C@@H](C)NC(=O)c1ccc(/C(F)=C/C(c2cc(Cl)c(Cl)c(Cl)c2)C(F)(F)F)cc1C(F)(F)F (stereo partly drawn) [F173, N—((R)-1-(Methylamino)-1-oxopropan-2-yl)-4-((Z)-1,4,4,4-tetrafluoro-3-(3,4,5-trichlorophenyl)but-1-en-1-yl)-2-(trifluoromethyl)benzamide]			50 to 100%			50 to 100%
C[C@@H](NC(=O)c1ccc(/C(F)=C/C(c2cc(Cl)c(Cl)c(C(C)(F)F)c2)C(F)(F)F)cc1C(F)(F)F)C(=O)NCC(F)(F)F (stereo partly drawn) [F193, 4-((Z)-3-(3,4-Dichloro-5-(1,1-difluoroethyl)phenyl)-1,4,4,4-tetrafluorobut-1-en-1-yl)-N—((R)-1-oxo-1-((2,2,2-trifluoroethyl)amino)propan-2-yl)-2-(trifluoromethyl)benzamide]			50 to 100%			50 to 100%
C[C@@H](NC(=O)c1ccc(/C(F)=C/C(c2cc(Cl)c(Cl)c(Cl)c2)C(F)(F)F)cc1Br)C(=O)N(C)CC(F)(F)F (stereo partly drawn) [F50, 2-Bromo-N—((R)-1-(methyl(2,2,2-trifluoroethyl)amino)-1-oxopropan-2-yl)-4-((Z)-1,4,4,4-tetrafluoro-3-(3,4,5-trichlorophenyl)but-1-en-1-yl)benzamide]			50 to 100%			50 to 100%
C[C@@H](NC(=O)c1ccc(/C(F)=C/C(c2cc(Cl)c(Cl)c(C#CC(C)(C)C)c2)C(F)(F)F)cc1C(F)(F)F)C(=O)NCC(F)(F)F (stereo partly drawn) [F191, 4-((Z)-3-(3,4-Dichloro-5-(3,3-dimethylbut-1-yn-1-yl)phenyl)-1,4,4,4-tetrafluorobut-1-en-1-yl)-N—((R)-1-oxo-1-((2,2,2-trifluoroethyl)amino)propan-2-yl)-2-(trifluoromethyl)benzamide]			50 to 100%			50 to 100%
O=C(CNC(=O)c1ccc(/C(F)=C/C(c2cc(Cl)c(Br)c(Cl)c2)C(F)(F)F)cc1C(F)(F)F)NCC(F)(F)F (stereo not drawn) [F110]			50 to 100%			50 to 100%
CC(F)(F)C(/C=C(\F)c1ccc(C(=O)NC2(C(=O)NCC(F)(F)F)CC2)c(C(F)(F)F)c1)c1cc(Cl)c(Cl)c(Cl)c1 (stereo not drawn) [F58, (Z)-4-(1,4,4-Trifluoro-3-(3,4,5-trichlorophenyl)pent-1-en-1-yl)-N-(1-((2,2,2-trifluoroethyl)carbamoyl)cyclopropyl)-2-(trifluoromethyl)benzamide]			50 to 100%			50 to 100%
O=C(NC1(C(=O)NCC(F)F)CC1)c1ccc(/C(F)=C/C(c2cc(Cl)c(Cl)c(Cl)c2)C(F)(F)F)cc1C(F)(F)F (stereo not drawn) [F95, (Z)—N-(1-((2,2-Difluoroethyl)carbamoyl)cyclopropyl)-4-(1,4,4,4-tetrafluoro-3-(3,4,5-trichlorophenyl)but-1-en-1-yl)-2-(trifluoromethyl)benzamide]			50 to 100%			50 to 100%
CCN(CC(F)(F)F)C(=O)[C@@H](C)NC(=O)c1ccc(/C(F)=C/C(c2cc(Cl)c(Cl)c(Cl)c2)C(F)(F)F)cc1Br (stereo partly drawn) [F25, 2-Bromo-N—((R)-1-(ethyl(2,2,2-trifluoroethyl)amino)-1-oxopropan-2-yl)-4-((Z)-1,4,4,4-tetrafluoro-3-(3,4,5-trichlorophenyl)but-1-en-1-yl)benzamide]			50 to 100%			50 to 100%
C#Cc1cc(C(/C=C(\F)c2ccc(C(=O)N[C@H](C)C(=O)NCC(F)(F)F)c(C(F)(F)F)c2)C(F)(F)F)cc(Cl)c1Cl (stereo partly drawn) [F189, 4-((Z)-3-(3,4-Dichloro-5-ethynylphenyl)-1,4,4,4-tetrafluorobut-1-en-1-yl)-N—((R)-1-oxo-1-((2,2,2-trifluoroethyl)amino)propan-2-yl)-2-(trifluoromethyl)benzamide]			50 to 100%			50 to 100%
CC[C@@H](NC(=O)c1ccc(/C(F)=C/C(c2cc(Cl)c(Cl)c(Cl)c2)C(F)(F)F)cc1Cl)C(=O)NCC(F)(F)F (stereo partly drawn) [F100, 2-Chloro-N—((R)-1-oxo-1-((2,2,2-trifluoroethyl)amino)butan-2-yl)-4-((Z)-1,4,4,4-tetrafluoro-3-(3,4,5-trichlorophenyl)but-1-en-1-yl)benzamide]			50 to 100%			50 to 100%
CCC(F)(F)C(/C=C(\F)c1ccc(C(=O)NCC(=O)NCC(F)(F)F)c(C(F)(F)F)c1)c1cc(Cl)c(Cl)c(Cl)c1 (stereo not drawn) [F87, (Z)—N-(2-Oxo-2-((2,2,2-trifluoroethyl)amino)ethyl)-4-(1,4,4-trifluoro-3-(3,4,5-trichlorophenyl)hex-1-en-1-yl)-2-(trifluoromethyl)benzamide]			50 to 100%			50 to 100%
COc1ccc(C(/C=C(\F)c2ccc(C(=O)NCC(=O)NCC(F)(F)F)c(C(F)(F)F)c2)C(F)(F)F)cc1Cl (stereo not drawn) [F158, (Z)-4-(3-(3-Chloro-4-methoxyphenyl)-1,4,4,4-tetrafluorobut-1-en-1-yl)-N-(2-oxo-2-((2,2,2-trifluoroethyl)amino)ethyl)-2-(trifluoromethyl)benzamide]			50 to 100%			50 to 100%
C=CCON(CC(F)(F)F)C(=O)[C@@H](C)NC(=O)c1ccc(/C(F)=C/C(c2cc(Cl)c(Cl)c(Cl)c2)C(F)(F)F)cc1C(F)(F)F (stereo partly drawn) [F27, N—((R)-1-((Allyloxy)(2,2,2-trifluoroethyl)amino)-1-oxopropan-2-yl)-4-((Z)-1,4,4,4-tetrafluoro-3-(3,4,5-trichlorophenyl)but-1-en-1-yl)-2-(trifluoromethyl)benzamide]			50 to 100%			50 to 100%
C=CCNC(=O)C1(NC(=O)c2ccc(/C(F)=C/C(c3cc(Cl)c(Cl)c(Cl)c3)C(F)(F)F)cc2C(F)(F)F)CC1 (stereo not drawn) [F5, (Z)—N-(1-(Allylcarbamoyl)cyclopropyl)-4-(1,4,4,4-tetrafluoro-3-(3,4,5-trichlorophenyl)but-1-en-1-yl)-2-(trifluoromethyl)benzamide]			50 to 100%			50 to 100%
O=C(CNC(=O)c1ccc(/C(F)=C/C(c2ccc(F)c(F)c2)C(F)(F)F)cc1C(F)(F)F)NCC(F)(F)F (stereo not drawn) [F215, (Z)-4-(3-(3,4-difluorophenyl)-1,4,4,4-tetrafluorobut-1-en-1-yl)-N-(2-oxo-2-((2,2,2-trifluoroethyl)amino)ethyl)-2-(trifluoromethyl)benzamide]			50 to 100%			50 to 100%
Cc1cc(C(/C=C(\F)c2ccc(C(=O)NC3(C(=O)NCC(F)(F)F)CC3)c(C(F)(F)F)c2)C(F)(F)F)ccc1Cl (stereo not drawn) [PF50, (Z)-4-(3-(4-Chloro-3-methylphenyl)-1,4,4,4-tetrafluorobut-1-en-1-yl)-N-(1-((2,2,2-trifluoroethyl)carbamoyl)cyclopropyl)-2-(trifluoromethyl)benzamide]			50 to 100%			50 to 100%
C[C@@H](NC(=O)c1ccc(/C(F)=C/C(c2cc(Cl)c(Cl)c(Cl)c2)C(F)(F)F)cc1Cl)C(=O)NCC(F)F (stereo partly drawn) [F32, 2-Chloro-N—((R)-1-((2,2-difluoroethyl)amino)-1-oxopropan-2-yl)-4-((Z)-1,4,4,4-tetrafluoro-3-(3,4,5-trichlorophenyl)but-1-en-1-yl)benzamide]			50 to 100%			50 to 100%
CN(CC(F)(F)F)C(=O)C1(NC(=O)c2ccc(/C(F)=C/C(c3cc(Cl)c(Cl)c(Cl)c3)C(F)(F)F)cc2C(F)(F)F)CC1 (stereo not drawn) [F96, (Z)—N-(1-(Methyl(2,2,2-trifluoroethyl)carbamoyl)cyclopropyl)-4-(1,4,4,4-tetrafluoro-3-(3,4,5-trichlorophenyl)but-1-en-1-yl)-2-(trifluoromethyl)benzamide]			50 to 100%			50 to 100%
